Assays:
Assay type in all cases: in vivo
Aphis gossypii = experiment: Cotton aphid (Aphis gossypii) mortality test on dipped cotton plants; conditions: 120 h, cotton cotyledons dipped, aphid mortality determined after 5 days, read-out: mortality in comparison with untreated controls
Procedure: (§1) The active compounds were formulated • a. for testing the activity against Aphis gossypii, Myzus persicae, and Aphis fabae, as 50:50 acetone:water solutions amended with 100 ppm Kinetic® (surfactant), • b. for testing the activity against Spodoptera eridania as a 10.000 ppm solution in a mixture of 35% acetone and water, which was diluted with water, if needed.
(§2) After the experiments were completed, in each case the lowest concentration was determined at which the compound still caused an 75 to 100% inhibition or mortality in comparison with untreated controls (limit or minimal concentration).
B.1 Cotton Aphid (Aphis gossypii)
(§3) Cotton plants in the cotyledon stage (variety ‘Delta Pine’) are infested with approximately 100 laboratory-reared aphids by placing infested leaf sections on top of the test plants. The leaf sections are removed after 24 hr. The cotyledons of the intact plants are dipped into gradient solutions of the test compound. Aphid mortality on the treated plants, relative to mortality on check plants, is determined after 5 days.

Myzus persicae = experiment: Green peach aphid (Myzus persicae) mortality test on dipped pepper plants; conditions: 120 h, pepper plant leaves dipped, aphid mortality determined after 5 days, read-out: mortality in comparison with untreated controls
Procedure: as §1, §2
B.2 Green Peach Aphid (Myzus persicae)
as §3, with “Pepper” for “Cotton”, “2nd leaf-pair” for “cotyledon”, “‘California Wonder’)” for “‘Delta Pine’)”, “40” for “100”, “leaves” for “cotyledons”

Aphis fabae = experiment: Bean aphid (Aphis fabae) mortality test on dipped nasturtium plants; conditions: foliar, 72 h, nasturtium foliage and stem dipped, aphid mortality determined after 3 days, read-out: mortality in comparison with untreated controls
Procedure: as §1, §2
B.3 Bean Aphid (Aphis fabae)
Nasturtium plants in the 1st leaf-pair stage (variety ‘Mixed Jewel’) are infested with approximately 25 laboratory-reared aphids by placing infested cut plants on top of the test plants. The cut plants are removed after 24 hr. The foliage and stem of the test plants are dipped into gradient solutions of the test compound. Aphid mortality is determined after 3 days.

Measured: mortality at 300 ppm

COCC(=O)OCCNC(=S)NC1CCc2ccccc21 (racemic) [Example 14, Methoxy-acetic acid 2-(3-indan-1-yl-thioureido)-ethyl ester]
> 80%: all assays above

O=C(OCCNC(=S)NC1CCc2ccccc21)c1ccncc1 (racemic) [Example 13, Isonicotinic acid 2-(3-indan-1-yl-thioureido)-ethyl ester]
> 80%: all assays above

From US7674827B2, “Indanyl- and tetrahydronaphtyl-amino-thiourea compounds for combating animal pests” (BASF SE, priority 2005, dated 2010)
